Patent US9586936B2, “Heteroarylamine derivatives as protein kinase inhibitors” (KOREA INSTITUTE OF SCIENCE AND TECHNOLOGY, priority 2014, dated 2017)

How the values were obtained:
CYP3A4 = CYP3A4 (Homo sapiens, UniProt P08684); experiment: inhibition activity against CYPs (cytochromes P450); type: in vitro ADME
Procedure: (§1) The inhibition activity (inhibition rate, %) of N-(2,6-dichloro-3,5-dimethoxyphenyl)-1-(6-((4-(4-ethylpiperazin-1-yl)phenyl)amino)pyrimidin-4-yl)-1H-benz[d]imidazol-2-amine synthesized in Example 1, as a representative compound of the present invention, against CYPs (cytochromes P450) was measured in order to investigate the risk of drug side effects.

CYP2C9 = CYP2C9 (Homo sapiens, UniProt P11712); experiment: as above; type: in vitro ADME
Sequence of CYP2C9 (P11712 whole entry): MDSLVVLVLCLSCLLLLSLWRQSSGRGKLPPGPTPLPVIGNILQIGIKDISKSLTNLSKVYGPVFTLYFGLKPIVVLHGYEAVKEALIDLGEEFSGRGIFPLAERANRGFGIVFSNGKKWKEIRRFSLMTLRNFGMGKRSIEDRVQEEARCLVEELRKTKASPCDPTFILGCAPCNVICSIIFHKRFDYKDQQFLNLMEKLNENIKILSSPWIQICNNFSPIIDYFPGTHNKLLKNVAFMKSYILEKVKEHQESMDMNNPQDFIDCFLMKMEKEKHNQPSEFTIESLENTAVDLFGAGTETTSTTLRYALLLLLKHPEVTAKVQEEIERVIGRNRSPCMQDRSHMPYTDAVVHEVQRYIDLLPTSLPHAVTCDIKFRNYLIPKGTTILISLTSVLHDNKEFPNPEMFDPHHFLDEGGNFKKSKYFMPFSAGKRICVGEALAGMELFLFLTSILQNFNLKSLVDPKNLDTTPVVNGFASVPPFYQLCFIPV
Procedure: as §1

CYP1A2 = molecular target: T1, CYP1A2 (Homo sapiens, UniProt P05177); experiment: as above; type: in vitro ADME
T1 sequence (P05177 1-516): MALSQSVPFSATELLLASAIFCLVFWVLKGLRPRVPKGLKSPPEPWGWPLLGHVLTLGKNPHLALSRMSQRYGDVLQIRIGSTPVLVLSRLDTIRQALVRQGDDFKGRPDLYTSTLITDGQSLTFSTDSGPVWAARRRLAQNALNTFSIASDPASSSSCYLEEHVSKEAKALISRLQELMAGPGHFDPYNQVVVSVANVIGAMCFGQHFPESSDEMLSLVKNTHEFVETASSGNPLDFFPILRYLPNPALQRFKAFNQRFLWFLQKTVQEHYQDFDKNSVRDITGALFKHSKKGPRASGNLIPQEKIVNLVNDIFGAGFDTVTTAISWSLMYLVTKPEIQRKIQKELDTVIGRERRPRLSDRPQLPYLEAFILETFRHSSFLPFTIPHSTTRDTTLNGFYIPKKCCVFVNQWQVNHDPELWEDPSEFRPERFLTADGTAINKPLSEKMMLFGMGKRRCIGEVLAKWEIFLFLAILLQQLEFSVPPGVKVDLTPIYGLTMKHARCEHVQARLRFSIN
Procedure: as §1

CYP2D6 = CYP2D6 (Homo sapiens, UniProt P10635); experiment: as above; type: in vitro ADME
Sequence of CYP2D6 (P10635 whole entry): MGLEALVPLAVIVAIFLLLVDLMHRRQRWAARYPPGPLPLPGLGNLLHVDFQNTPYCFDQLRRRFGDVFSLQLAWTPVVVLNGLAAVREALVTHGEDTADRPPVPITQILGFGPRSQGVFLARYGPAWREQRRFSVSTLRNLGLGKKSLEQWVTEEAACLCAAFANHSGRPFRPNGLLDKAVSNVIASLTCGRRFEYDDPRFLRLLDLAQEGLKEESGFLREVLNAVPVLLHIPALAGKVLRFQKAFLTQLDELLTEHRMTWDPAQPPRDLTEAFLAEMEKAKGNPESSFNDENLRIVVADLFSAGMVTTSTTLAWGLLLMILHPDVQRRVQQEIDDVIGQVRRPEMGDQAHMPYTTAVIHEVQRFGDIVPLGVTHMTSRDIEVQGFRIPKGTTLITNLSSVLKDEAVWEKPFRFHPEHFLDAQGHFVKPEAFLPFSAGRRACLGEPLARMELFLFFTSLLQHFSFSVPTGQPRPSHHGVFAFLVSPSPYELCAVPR
Procedure: as §1

CYP2C19 = CYP2C19 (Homo sapiens, UniProt P33261); experiment: as above; type: in vitro ADME
Sequence of CYP2C19 (P33261 whole entry): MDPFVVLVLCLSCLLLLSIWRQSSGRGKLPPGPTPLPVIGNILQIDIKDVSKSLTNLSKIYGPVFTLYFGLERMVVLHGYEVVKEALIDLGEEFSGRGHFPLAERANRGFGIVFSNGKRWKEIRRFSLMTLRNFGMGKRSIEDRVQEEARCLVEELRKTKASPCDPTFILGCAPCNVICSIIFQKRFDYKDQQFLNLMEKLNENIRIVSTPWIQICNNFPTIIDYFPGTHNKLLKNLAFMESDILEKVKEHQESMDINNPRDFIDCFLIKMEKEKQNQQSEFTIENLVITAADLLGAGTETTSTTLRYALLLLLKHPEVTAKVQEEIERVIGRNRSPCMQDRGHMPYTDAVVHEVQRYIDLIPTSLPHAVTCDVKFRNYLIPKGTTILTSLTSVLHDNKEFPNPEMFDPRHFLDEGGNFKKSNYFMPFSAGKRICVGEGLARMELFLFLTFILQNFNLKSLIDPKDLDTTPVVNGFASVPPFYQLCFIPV
Procedure: as §1

microsomal stability = type: in vitro ADME, Rat; conditions: for microsomal stability (% at time): Rat
Procedure: The microsomal stability of N-(2,6-dichloro-3,5-dimethoxyphenyl)-1-(6-((4-(4-ethylpiperazin-1-yl)phenyl)amino)pyrimidin-4-yl)-1H-benz[d]imidazol-2-amine synthesized in Example 1, as a representative compound of the present invention, was evaluated.

DYRK2 = DYRK2 (Homo sapiens, UniProt Q92630); experiment: kinase inhibition activity, full kinase panel; type: biochemical; conditions: 1 μM of the compound; read-out: kinase activity inhibited (% inhibition)
Procedure: (§2) In order to measure the inhibition activity (% inhibition) of the compound of the present invention against protein kinases, a biochemical assay was conducted using a full kinase panel consisting of 340 kinases. As a representative compound of the present invention, N-(2,6-dichloro-3,5-dimethoxyphenyl)-1-(6-((4-(4-ethylpiperazin-1-yl)phenyl)amino)pyrimidin-4-yl)-1H-benz[d]imidazol-2-amine synthesized in Example 1 was used.
(§3) The kinases whose activity is inhibited by 50% or more when treated with 1 μM of the compound of Example 1 are listed in Table 1.

TIE2 = TIE2 (Homo sapiens, UniProt Q02763); experiment: kinase inhibition activity, full kinase panel; type: biochemical; conditions: 1 μM of the compound; read-out: kinase activity inhibited (% inhibition)
Procedure: as §2, §3

TNK1 = TNK1 (Homo sapiens, UniProt Q13470); experiment: kinase inhibition activity, full kinase panel; type: biochemical; conditions: 1 μM of the compound; read-out: kinase activity inhibited (% inhibition)
Sequence of TNK1 (Q13470 whole entry): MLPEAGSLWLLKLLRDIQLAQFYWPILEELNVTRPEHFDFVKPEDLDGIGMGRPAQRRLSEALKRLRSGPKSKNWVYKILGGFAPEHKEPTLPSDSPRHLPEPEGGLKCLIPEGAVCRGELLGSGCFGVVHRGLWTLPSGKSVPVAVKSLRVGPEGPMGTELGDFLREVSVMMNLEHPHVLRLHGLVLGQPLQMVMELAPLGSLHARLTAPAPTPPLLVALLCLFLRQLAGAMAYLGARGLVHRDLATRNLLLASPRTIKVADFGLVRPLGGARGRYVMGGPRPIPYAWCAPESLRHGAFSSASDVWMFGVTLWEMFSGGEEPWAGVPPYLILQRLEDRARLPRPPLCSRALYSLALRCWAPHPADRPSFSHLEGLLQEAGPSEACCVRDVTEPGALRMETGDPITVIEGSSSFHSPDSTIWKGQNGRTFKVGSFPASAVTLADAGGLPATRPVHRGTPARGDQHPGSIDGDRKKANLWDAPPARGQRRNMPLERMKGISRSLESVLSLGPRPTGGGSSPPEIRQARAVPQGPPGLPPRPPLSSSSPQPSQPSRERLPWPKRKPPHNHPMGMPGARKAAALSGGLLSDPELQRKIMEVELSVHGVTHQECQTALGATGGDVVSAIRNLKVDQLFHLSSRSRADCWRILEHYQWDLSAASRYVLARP
Procedure: as §2, §3

Fyn = Fyn (Homo sapiens, UniProt P06241); experiment: kinase inhibition activity, full kinase panel; type: biochemical; conditions: 1 μM of the compound; read-out: kinase activity inhibited (% inhibition)
Sequence of Fyn (P06241 whole entry): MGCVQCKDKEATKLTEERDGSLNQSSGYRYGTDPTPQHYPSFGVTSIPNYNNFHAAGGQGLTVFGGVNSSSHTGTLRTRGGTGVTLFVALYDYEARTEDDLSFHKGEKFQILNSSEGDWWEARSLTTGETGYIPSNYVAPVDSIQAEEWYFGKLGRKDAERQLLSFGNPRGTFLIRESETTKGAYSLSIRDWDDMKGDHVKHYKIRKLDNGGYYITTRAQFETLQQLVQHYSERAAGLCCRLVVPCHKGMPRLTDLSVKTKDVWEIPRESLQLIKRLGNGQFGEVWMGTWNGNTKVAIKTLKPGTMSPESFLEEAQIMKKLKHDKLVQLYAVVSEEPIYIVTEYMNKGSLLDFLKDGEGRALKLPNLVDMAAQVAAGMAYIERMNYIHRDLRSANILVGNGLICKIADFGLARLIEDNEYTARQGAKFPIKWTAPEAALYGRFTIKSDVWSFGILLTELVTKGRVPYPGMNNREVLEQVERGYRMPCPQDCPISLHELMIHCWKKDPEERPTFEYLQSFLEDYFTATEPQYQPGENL
Procedure: as §2, §3

MAP4K5 = MAP4K5 (Homo sapiens, UniProt Q9Y4K4); experiment: kinase inhibition activity, full kinase panel; type: biochemical; conditions: 1 μM of the compound; read-out: kinase activity inhibited (% inhibition)
Sequence of MAP4K5 (Q9Y4K4 whole entry): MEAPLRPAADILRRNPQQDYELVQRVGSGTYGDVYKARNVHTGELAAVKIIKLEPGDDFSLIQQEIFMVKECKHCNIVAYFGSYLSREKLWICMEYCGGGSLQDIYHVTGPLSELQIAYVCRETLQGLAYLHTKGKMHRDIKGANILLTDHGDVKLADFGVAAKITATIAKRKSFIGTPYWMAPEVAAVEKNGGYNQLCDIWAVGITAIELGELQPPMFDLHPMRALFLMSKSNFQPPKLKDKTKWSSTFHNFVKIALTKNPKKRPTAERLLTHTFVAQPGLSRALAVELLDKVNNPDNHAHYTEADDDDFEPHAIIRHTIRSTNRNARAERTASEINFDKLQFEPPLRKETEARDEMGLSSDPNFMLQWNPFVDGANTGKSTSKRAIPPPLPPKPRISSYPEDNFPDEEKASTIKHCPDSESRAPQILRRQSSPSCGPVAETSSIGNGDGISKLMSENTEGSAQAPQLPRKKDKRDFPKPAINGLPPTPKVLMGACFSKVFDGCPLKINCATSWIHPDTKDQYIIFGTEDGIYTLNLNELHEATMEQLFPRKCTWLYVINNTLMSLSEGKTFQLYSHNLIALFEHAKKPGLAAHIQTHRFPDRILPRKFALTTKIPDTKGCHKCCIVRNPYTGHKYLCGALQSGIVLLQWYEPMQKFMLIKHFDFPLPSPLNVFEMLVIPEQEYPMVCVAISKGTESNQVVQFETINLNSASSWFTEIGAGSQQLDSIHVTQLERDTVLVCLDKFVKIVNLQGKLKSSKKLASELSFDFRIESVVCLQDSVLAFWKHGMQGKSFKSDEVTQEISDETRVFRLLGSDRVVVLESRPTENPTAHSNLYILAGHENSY
Procedure: as §2, §3

c-Kit = c-Kit (Homo sapiens, UniProt P10721); experiment: kinase inhibition activity, full kinase panel; type: biochemical; conditions: 1 μM of the compound; read-out: kinase activity inhibited (% inhibition)
Procedure: as §2, §3

SIK1 = SIK1 (Homo sapiens, UniProt P57059); experiment: kinase inhibition activity, full kinase panel; type: biochemical; conditions: 1 μM of the compound; read-out: kinase activity inhibited (% inhibition)
Procedure: as §2, §3

LCK = LCK (Homo sapiens, UniProt P06239); experiment: kinase inhibition activity, full kinase panel; type: biochemical; conditions: 1 μM of the compound; read-out: kinase activity inhibited (% inhibition)
Procedure: as §2, §3

Hck = Hck (Homo sapiens, UniProt P08631); experiment: kinase inhibition activity, full kinase panel; type: biochemical; conditions: 1 μM of the compound; read-out: kinase activity inhibited (% inhibition)
Procedure: as §2, §3

TAOK1 = TAOK1 (Homo sapiens, UniProt Q7L7X3); experiment: kinase inhibition activity, full kinase panel; type: biochemical; conditions: 1 μM of the compound; read-out: kinase activity inhibited (% inhibition)
Procedure: as §2, §3

TRKA = TRKA (Homo sapiens, UniProt P04629); experiment: kinase inhibition activity, full kinase panel; type: biochemical; conditions: 1 μM of the compound; read-out: kinase activity inhibited (% inhibition)
Procedure: as §2, §3

MEKK3 = MEKK3 (Homo sapiens, UniProt Q99759); experiment: kinase inhibition activity, full kinase panel; type: biochemical; conditions: 1 μM of the compound; read-out: kinase activity inhibited (% inhibition)
Sequence of MEKK3 (Q99759 whole entry): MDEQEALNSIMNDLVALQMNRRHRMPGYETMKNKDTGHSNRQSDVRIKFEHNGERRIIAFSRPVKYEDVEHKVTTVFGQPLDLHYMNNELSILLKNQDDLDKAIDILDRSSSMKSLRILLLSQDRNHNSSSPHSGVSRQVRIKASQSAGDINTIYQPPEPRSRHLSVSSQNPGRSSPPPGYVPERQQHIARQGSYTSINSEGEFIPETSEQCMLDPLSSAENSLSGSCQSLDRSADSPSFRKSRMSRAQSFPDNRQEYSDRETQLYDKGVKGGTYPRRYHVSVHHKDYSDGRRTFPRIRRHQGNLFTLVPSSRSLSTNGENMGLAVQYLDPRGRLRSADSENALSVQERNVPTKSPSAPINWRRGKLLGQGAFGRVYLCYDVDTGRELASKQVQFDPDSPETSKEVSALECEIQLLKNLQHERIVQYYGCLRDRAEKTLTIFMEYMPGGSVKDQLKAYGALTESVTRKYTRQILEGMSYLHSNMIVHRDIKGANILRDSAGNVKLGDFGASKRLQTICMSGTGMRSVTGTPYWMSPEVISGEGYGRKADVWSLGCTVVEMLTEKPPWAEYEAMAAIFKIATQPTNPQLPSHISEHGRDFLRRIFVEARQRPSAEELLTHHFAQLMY
Procedure: as §2, §3

MEKK2 = MEKK2 (Homo sapiens, UniProt Q9Y2U5); experiment: kinase inhibition activity, full kinase panel; type: biochemical; conditions: 1 μM of the compound; read-out: kinase activity inhibited (% inhibition)
Procedure: as §2, §3

SIK3 = SIK3 (Homo sapiens, UniProt Q9Y2K2); experiment: kinase inhibition activity, full kinase panel; type: biochemical; conditions: 1 μM of the compound; read-out: kinase activity inhibited (% inhibition)
Procedure: as §2, §3

[1] = from 0.1-50 μM, unit from the table's concentration head, read-out: Expected IC50

Sequence of CYP3A4 (P08684 whole entry): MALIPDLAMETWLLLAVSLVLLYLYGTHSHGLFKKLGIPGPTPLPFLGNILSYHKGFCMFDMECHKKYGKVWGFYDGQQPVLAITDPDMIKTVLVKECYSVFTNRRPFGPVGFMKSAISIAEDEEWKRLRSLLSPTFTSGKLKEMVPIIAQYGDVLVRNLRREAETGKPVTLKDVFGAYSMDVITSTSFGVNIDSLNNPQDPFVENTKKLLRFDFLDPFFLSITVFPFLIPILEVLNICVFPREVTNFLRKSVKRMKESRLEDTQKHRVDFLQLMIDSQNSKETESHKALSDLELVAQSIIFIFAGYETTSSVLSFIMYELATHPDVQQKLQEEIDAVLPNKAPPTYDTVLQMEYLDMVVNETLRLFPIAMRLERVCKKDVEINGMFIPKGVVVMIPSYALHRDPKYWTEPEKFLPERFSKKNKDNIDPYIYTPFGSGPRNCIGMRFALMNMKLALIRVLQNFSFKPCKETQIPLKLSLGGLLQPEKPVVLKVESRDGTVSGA

With `CCN1CCN(c2ccc(Nc3cc(-n4c(Nc5c(Cl)c(OC)cc(OC)c5Cl)nc5ccccc54)ncn3)cc2)CC1` [Example 1, N-(2,6-dichloro-3,5-dimethoxyphenyl)-1-(6-((4-(4-ethylpiperazin-1-yl)phenyl)amino)pyrimidin-4-yl)-1H-benz[d]imidazol-2-amine] the inhibition at 10 µM (CYP3A4; concentration 10 μM) was 31.8%, the IC50 (CYP3A4; [1]) was 32.4 µM and the inhibition at 0.1 µM (CYP3A4; human, concentration 0.1 μM) was 3.09%. It also gave an inhibition at 0.5 µM (CYP3A4; human, concentration 0.5 μM) of 3.7%, an inhibition at 5 µM (CYP3A4; human, concentration 5 μM) of 24.4% and an inhibition at 25 µM (CYP3A4; human, concentration 25 μM) of 49.7%. The inhibition at 50 µM (CYP3A4; human, concentration 50 μM) was 55.5%, the “inhibition activity against CYP, statement in words” value (“inhibition activity against CYP” below) (CYP3A4; summary of Table 5) was “no inhibition activity” and the IC50 (CYP2C9; [1]) was 44.8 µM. It also gave an inhibition at 0.1 µM (CYP2C9; human, concentration 0.1 μM) of 10.3%, an inhibition at 0.5 µM (CYP2C9; human, concentration 0.5 μM) of 8.79% and an inhibition at 5 µM (CYP2C9; human, concentration 5 μM) of 24.6%. It also gave an inhibition at 10 µM (CYP2C9; human, concentration 10 μM) of 30%, an inhibition at 25 µM (CYP2C9; human, concentration 25 μM) of 52.4% and an inhibition at 50 µM (CYP2C9; human, concentration 50 μM) of 53.4%. For the same molecule, the “inhibition activity against CYP” value (CYP2C9; summary of Table 5) was “no inhibition activity”, the IC50 (CYP1A2; [1]) was over 50 µM and the inhibition at 0.1 µM (CYP1A2; human, concentration 0.1 μM) was 5.36%. The inhibition at 0.5 µM (CYP1A2; human, concentration 0.5 μM) was 4.67%, the inhibition at 5 µM (CYP1A2; human, concentration 5 μM) was -1.9% and the inhibition at 10 µM (CYP1A2; human, concentration 10 μM) was -3.46%. For the same molecule, the inhibition at 25 µM (CYP1A2; human, concentration 25 μM) was -3.11%, the inhibition at 50 µM (CYP1A2; human, concentration 50 μM) was 2.08% and the “inhibition activity against CYP” value (CYP1A2; summary of Table 5) was “no inhibition activity”. It also gave an inhibition at 10 µM (CYP2D6; concentration 10 μM) of 6.12%, an IC50 (CYP2D6; [1]) of over 50 µM and an inhibition at 0.1 µM (CYP2D6; human, concentration 0.1 μM) of -3.15%. For the same molecule, the inhibition at 0.5 µM (CYP2D6; human, concentration 0.5 μM) was -4.76%, the inhibition at 5 µM (CYP2D6; human, concentration 5 μM) was -2.56% and the inhibition at 25 µM (CYP2D6; human, concentration 25 μM) was 13.6%. For the same molecule, the inhibition at 50 µM (CYP2D6; human, concentration 50 μM) was 13.4%, the “inhibition activity against CYP” value (CYP2D6; summary of Table 5) was “no inhibition activity” and the inhibition at 10 µM (CYP2C19; concentration 10 μM) was 37.3%. For the same molecule, the IC50 (CYP2C19; [1]) was 16.6 µM, the inhibition at 0.1 µM (CYP2C19; human, concentration 0.1 μM) was 2.72% and the inhibition at 0.5 µM (CYP2C19; human, concentration 0.5 μM) was 3.23%. For the same molecule, the inhibition at 5 µM (CYP2C19; human, concentration 5 μM) was 30%, the inhibition at 25 µM (CYP2C19; human, concentration 25 μM) was 66.1% and the inhibition at 50 µM (CYP2C19; human, concentration 50 μM) was 68%. The “inhibition activity against CYP” value (CYP2C19; summary of Table 5) was “no inhibition activity”, the “microsomal stability (% at time)” value (microsomal stability; 0 min) was 100.00% and the “microsomal stability (% at time)” value (microsomal stability; 5 min) was 95.53%. For the same molecule, the “microsomal stability (% at time)” value (microsomal stability; 10 min) was 88.45%, the “microsomal stability (% at time)” value (microsomal stability; 15 min) was 82.61% and the “microsomal stability (% at time)” value (microsomal stability; 30 min) was 65.16%. For the same molecule, the “microsomal stability (% at time)” value (microsomal stability; 45 min) was 45.27%, the “microsomal stability (% at time)” value (microsomal stability; 60 min) was 44.31% and the half-life (microsomal stability; microsomes, Rat microsomal stability) was 39.6 min. For the same molecule, the inhibition at 1 µM (DYRK2) was at least 50%, the inhibition at 1 µM (TIE2) was at least 50% and the inhibition at 1 µM (TNK1) was at least 50%. The inhibition at 1 µM (Fyn) was at least 50%, the inhibition at 1 µM (MAP4K5) was at least 50% and the inhibition at 1 µM (c-Kit) was at least 50%. The inhibition at 1 µM (SIK1) was at least 50%, the inhibition at 1 µM (LCK) was at least 50% and the inhibition at 1 µM (Hck) was at least 50%. For the same molecule, the inhibition at 1 µM (TAOK1) was at least 50%, the inhibition at 1 µM (TRKA) was at least 50% and the inhibition at 1 µM (MEKK3) was at least 50%. It also gave an inhibition at 1 µM (MEKK2) of at least 50% and an inhibition at 1 µM (SIK3) of at least 50%.
